Assay results from ChEMBL document CHEMBL4007462, “Chemical and bioactivity of flavanones obtained from roots of Dalea pazensis Rusby” (Bioorg Med Chem Lett, 2017).
The source made the active and inactive calls. The calls are words filed in the database; no cut-off is given here.

Assays:
[1] = target: T1, Mushroom tyrosinase (Agaricus bisporus) (UniProt O42713+Q00024+C7FF04+C7FF05); assay: Inhibition of mushroom tyrosinase at 10 uM using L-tyrosine as substrate preincubated for 10 mins followed by substrate addition measured after 20 mins by spectrophotometric method relative to control
[2] = target: T1, Mushroom tyrosinase (Agaricus bisporus); assay: Inhibition of mushroom tyrosinase at 100 uM using L-tyrosine as substrate preincubated for 10 mins followed by substrate addition measured after 20 mins by spectrophotometric method relative to control
B16 = assay: Inhibition of melanin formation from L-DOPA in mouse B16 cells preincubated for 24 hrs followed by L-DOPA addition and subsequent incubation for 20 mins measured at 1 min interval for 10 mins by MBTH reagent based spectrophotometric method; assay type: functional, cell-based
Tyrosinase = target: T2, Tyrosinase (Mus musculus, UniProt P11344)
T2 sequence (P11344 whole entry): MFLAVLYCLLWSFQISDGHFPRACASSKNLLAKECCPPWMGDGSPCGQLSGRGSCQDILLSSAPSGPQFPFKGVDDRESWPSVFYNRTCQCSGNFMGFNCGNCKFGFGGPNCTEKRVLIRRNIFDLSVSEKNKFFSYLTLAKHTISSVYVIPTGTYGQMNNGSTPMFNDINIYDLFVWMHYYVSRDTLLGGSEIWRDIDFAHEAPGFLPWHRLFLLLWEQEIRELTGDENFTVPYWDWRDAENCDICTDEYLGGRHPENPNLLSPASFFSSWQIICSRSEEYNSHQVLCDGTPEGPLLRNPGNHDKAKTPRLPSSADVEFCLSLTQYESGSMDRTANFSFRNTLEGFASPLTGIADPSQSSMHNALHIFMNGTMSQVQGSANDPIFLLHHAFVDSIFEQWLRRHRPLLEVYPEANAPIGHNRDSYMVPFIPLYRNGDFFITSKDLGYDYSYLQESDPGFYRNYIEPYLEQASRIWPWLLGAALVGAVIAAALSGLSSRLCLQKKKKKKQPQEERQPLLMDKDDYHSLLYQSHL
Description: Inhibition of tyrosinase in mouse B16 cells assessed as reduction in melanin production measured after 24 hrs

in vitro = settings: mouse, B16 cells
Description: Cytotoxicity against mouse B16 cells after 24 hrs by MTT assay

[3] = target: T3, Tyrosinase (Mus musculus) (UniProt P11344); assay: Inhibition of intracellular tyrosinase activity in mouse B16 cells at 0.05 uM using L-DOPA as substrate preincubated for 24 hrs followed by substrate addition and subsequent incubation for 20 mins measured at 1 min interval for 10 mins by MBTH reagent based spectrophotometric method relative to control; assay type: cell-based
T3 sequence (whole entry): T2 sequence (P11344 whole entry)

[4] = target: T3, Tyrosinase (Mus musculus); assay: Inhibition of intracellular tyrosinase activity in mouse B16 cells at 5 uM using L-DOPA as substrate preincubated for 24 hrs followed by substrate addition and subsequent incubation for 20 mins measured at 1 min interval for 10 mins by MBTH reagent based spectrophotometric method relative to control; assay type: cell-based
Mushroom tyrosinase = Mushroom tyrosinase (Agaricus bisporus, UniProt O42713+Q00024+C7FF04+C7FF05); assay: Inhibition of mushroom tyrosinase using L-tyrosine as substrate preincubated for 10 mins followed by substrate addition measured after 20 mins by spectrophotometric method

Compound	inhibition [1] [%]	inhibition [2] [%]	inhibition (B16)	IC50 (Tyrosinase) [µM]	MNTC at 24 h (in vitro) [µM]	inhibition [3] [%]	inhibition [4] [%]	IC50 (Mushroom tyrosinase) [µM]
CC(C)=CCc1c(O)cc2c(c1O)C(=O)CC(c1ccc(O)c(O)c1CC=C(C)C)O2 (stereo not drawn)	2.84	9.4	Active	0.75	1			
C=CC(C)(C)c1cc(C2CC(=O)c3c(O)cc(O)c(CC=C(C)C)c3O2)c(O)cc1O (stereo not drawn)	90.5	95		1	10	20.6	31.8	2.32
C=CC(C)(C)c1cc(C2CC(=O)c3c(cc(O)c(CC=C(C)C)c3O)O2)c(OC)cc1O (stereo not drawn)	0	0	Active	5	50			
C=CC(C)(C)c1cc(C2CC(=O)c3c(O)cc(O)c(CC=C(C)C)c3O2)c(OC)cc1O (stereo not drawn)	21.5	63.8	Active	5	5			49.8
